According to ChEMBL document CHEMBL4680113, “Tigliane Diterpenoids as a New Type of Antiadipogenic Agents Inhibit GRα-Dexras1 Axis in Adipocytes” (J Med Chem, 2019):
The source made the active and inactive calls. The calls are words filed in the database; no cut-off is given here.

Legend:
3T3-L1 [1] = test: Lipid lowering activity in mouse 3T3-L1 cells assessed as reduction in adipogenic cocktail-induced triglyceride levels incubated for 6 days by GPO-POD assay; format: functional, cell-based; conditions: for EC50: 3T3-L1, 144 h; for inhibition: time 6.0 day
3T3-L1 [2] = test: Inhibition of cell differentiation in mouse 3T3-L1 cells assessed as reduction in adipogenic cocktail-induced triglyceride levels at 1 uM incubated for 0 to 6 days by GPO-POD assay; format: functional, cell-based; conditions: time 0-6 day
3T3-L1 [3] = test: Inhibition of adipogenic cocktail-induced SCD1 protein expression in mouse 3T3-L1 cells incubated for 6 days by Western blot analysis; format: functional, cell-based; conditions: time 6.0 day
3T3-L1 [4] = test: Inhibition of GR-alpha in mouse 3T3-L1 cells assessed as reduction in GR-alpha interaction with C/EBP-beta at 1 uM incubated for 8 hrs by ChIP assay; format: cell-based
3T3-L1 [5] = test: Inhibition of adipogenic cocktail-induced C/EBP-beta protein expression in mouse 3T3-L1 cells at 1 to 10 uM incubated for 0.5 hrs by Western blot analysis; format: functional, cell-based; conditions: dose 1-10 µM
3T3-L1 [6] = test: Inhibition of cell differentiation in mouse 3T3-L1 cells assessed as reduction in adipogenic cocktail-induced triglyceride levels at 1 uM incubated for 0 to 6 days by Oil-Red O staining; format: functional, cell-based; conditions: time 0-6 day
3T3-L1 [7] = test: Inhibition of cell differentiation in mouse 3T3-L1 cells assessed as reduction in adipogenic cocktail-induced triglyceride levels at 1 uM incubated for 0 to 9 days by Oil-Red O staining; format: functional, cell-based; conditions: time 0-9 day
HepG2 = test: Lipid lowering activity in human HepG2 cells assessed as reduction in high-glucose induced triglyceride levels at 10 uM incubated for 24 hrs by GPO-POD assay; format: functional, cell-based
3T3-L1 [8] = test: Inhibition of adipogenic cocktail-induced ACC mRNA expression in mouse 3T3-L1 cells incubated for 6 days by RT-qPCR analysis; format: functional, cell-based; conditions: time 6.0 day
3T3-L1 [9] = test: Inhibition of adipogenic cocktail-induced C/EBP-delta mRNA expression in mouse 3T3-L1 cells at 1 to 10 uM incubated for 0.5 hrs by RT-qPCR analysis; format: functional, cell-based; conditions: dose 1-10 µM
3T3-L1 [10] = test: Inhibition of cell differentiation in mouse 3T3-L1 cells assessed as reduction in adipogenic cocktail-induced triglyceride levels at 1 uM incubated for 0 to 9 days by GPO-POD assay; format: functional, cell-based; conditions: time 0-9 day
3T3-L1 [11] = test: Inhibition of GR-alpha in mouse 3T3-L1 cells assessed as reduction in adipogenic cocktail-induced Dexras1 mRNA expression incubated for 0.5 to 24 hrs by RT-qPCR analysis; format: cell-based; conditions: time 0.5-24 hrs
3T3-L1 [12] = test: Inhibition of adipogenic cocktail-induced C/EBPdelta protein expression in mouse 3T3-L1 cells incubated for 24 hrs by Western blot analysis; format: functional, cell-based
3T3-L1 [13] = test: Inhibition of adipogenic cocktail-induced C/EBPdelta mRNA expression in mouse 3T3-L1 cells incubated for 24 hrs by RT-qPCR analysis; format: functional, cell-based
3T3-L1 [14] = test: Inhibition of adipogenic cocktail-induced GR-beta protein expression in mouse 3T3-L1 cells at 1 to 10 uM incubated for 4 to 24 hrs by Western blot analysis; format: functional, cell-based; conditions: dose 1-10 µM, time 4-24 hrs
3T3-L1 [15] = test: Inhibition of adipogenic cocktail-induced C/EBPalpha mRNA expression in mouse 3T3-L1 cells incubated for 24 hrs by RT-qPCR analysis; format: functional, cell-based
3T3-L1 [16] = test: Inhibition of adipogenic cocktail-induced ACC mRNA expression in mouse 3T3-L1 cells at 1 uM after 6 days in presence of GR-alpha siRNA by RT-qPCR analysis; format: functional, cell-based; conditions: time 6.0 day
3T3-L1 [17] = test: Inhibition of adipogenic cocktail-induced GR-alpha nuclear translocation in mouse 3T3-L1 cells at 1 uM after 8 hrs by Western blot analysis; format: cell-based
3T3-L1 [18] = test: Inhibition of adipogenic cocktail-induced PPARgamma mRNA expression in mouse 3T3-L1 cells incubated for 24 hrs by RT-qPCR analysis; format: functional, cell-based
3T3-L1 [19] = test: Inhibition of adipogenic cocktail-induced C/EBP-alpha mRNA expression in mouse 3T3-L1 cells at 1 uM after 1 day in presence of GR-alpha siRNA by RT-qPCR analysis; format: functional, cell-based
3T3-L1 [20] = test: Lipid lowering activity in mouse 3T3-L1 cells assessed as reduction in adipogenic cocktail induced triglyceride levels at 1 uM incubated for 6 days in presence of GR-alpha siRNA by GPO-POD assay; format: functional, cell-based; conditions: time 6.0 day
[21] = Toxicity in mouse 3T3-L1 cells assessed as reduction in cell viability incubated for 6 days by MTT assay; format: cell-based
3T3-L1 [22] = test: Inhibition of adipogenic cocktail-induced C/EBP-delta protein expression in mouse 3T3-L1 cells at 1 to 10 uM incubated for 0.5 hrs by Western blot analysis; format: functional, cell-based; conditions: dose 1-10 µM
3T3-L1 [23] = test: Lipid lowering activity in mouse 3T3-L1 cells assessed as reduction in adipogenic cocktail-induced triglyceride levels at 10 uM incubated for 6 days by GPO-POD assay; format: functional; conditions: 3T3-L1, 144 h, time 6 day
3T3-L1 [24] = test: Inhibition of adipogenic cocktail-induced C/EBPbeta protein expression in mouse 3T3-L1 cells incubated for 24 hrs by Western blot analysis; format: functional, cell-based
3T3-L1 [25] = test: Inhibition of adipogenic cocktail-induced GR-beta nuclear translocation in mouse 3T3-L1 cells at 1 uM after 8 hrs by immunofluorescence assay; format: cell-based
3T3-L1 [26] = test: Inhibition of adipogenic cocktail-induced C/EBPbeta mRNA expression in mouse 3T3-L1 cells incubated for 24 hrs by RT-qPCR analysis; format: functional, cell-based
3T3-L1 [27] = test: Inhibition of adipogenic cocktail-induced FAS mRNA expression in mouse 3T3-L1 cells incubated for 6 days by RT-qPCR analysis; format: functional, cell-based; conditions: time 6.0 day
3T3-L1 [28] = test: Lipid lowering activity in mouse 3T3-L1 cells assessed as reduction in adipogenic cocktail-induced triglyceride levels at 1 to 10 uM by Oil-Red O staining; format: functional, cell-based; conditions: dose 1-10 µM
3T3-L1 [29] = test: Inhibition of adipogenic cocktail-induced SCD1 mRNA expression in mouse 3T3-L1 cells incubated for 6 days by RT-qPCR analysis; format: functional, cell-based; conditions: time 6.0 day
3T3-L1 [30] = test: Inhibition of cell differentiation in mouse 3T3-L1 cells assessed as reduction in adipogenic cocktail-induced triglyceride levels at 1 uM incubated for 0 to 3 days by Oil-Red O staining; format: functional, cell-based; conditions: time 0-3 day
3T3-L1 [31] = test: Inhibition of adipogenic cocktail-induced C/EBP-beta mRNA expression in mouse 3T3-L1 cells at 1 to 10 uM incubated for 0.5 hrs by RT-qPCR analysis; format: functional, cell-based; conditions: dose 1-10 µM
3T3-L1 [32] = test: Inhibition of GR-alpha in mouse 3T3-L1 cells assessed as reduction in GR-alpha interaction with Dexras1 at 1 uM incubated for 8 hrs by ChIP assay; format: cell-based
3T3-L1 [33] = test: Inhibition of adipogenic cocktail-induced GR-alpha nuclear translocation in mouse 3T3-L1 cells at 1 uM after 8 hrs by immunofluorescence assay; format: cell-based
HEK293 = test: Toxicity in HEK293 cells assessed as reduction in cell viability at 10 uM incubated for 6 days by MTT assay; format: cell-based; conditions: human, hek293, 144 h, time 6 day
3T3-L1 [34] = test: Inhibition of adipogenic cocktail-induced C/EBPalpha protein expression in mouse 3T3-L1 cells incubated for 24 hrs by Western blot analysis; format: functional, cell-based
3T3-L1 [35] = test: Inhibition of adipogenic cocktail-induced GR-beta nuclear translocation in mouse 3T3-L1 cells at 1 uM after 8 hrs by Western blot analysis; format: cell-based
3T3-L1 [36] = test: Inhibition of GR-alpha in mouse 3T3-L1 cells assessed as reduction in adipogenic cocktail-induced Dexras1 protein expression incubated for 0.5 to 24 hrs by Western blot analysis; format: cell-based; conditions: time 0.5-24 hrs

Row | SMILES | EC50 (3T3-L1 [1]) | inhibition (3T3-L1 [1]) | inhibition (3T3-L1 [2]) | inhibition (3T3-L1 [3]) | inhibition (3T3-L1 [4]) | inhibition (3T3-L1 [5]) | inhibition (3T3-L1 [6]) | inhibition (3T3-L1 [7]) | inhibition (HepG2) | inhibition (3T3-L1 [8]) | inhibition (3T3-L1 [9]) | inhibition (3T3-L1 [10]) | inhibition (3T3-L1 [11]) | inhibition (3T3-L1 [12]) | inhibition (3T3-L1 [13]) | inhibition (3T3-L1 [14]) | inhibition (3T3-L1 [15]) | inhibition (3T3-L1 [16]) | inhibition (3T3-L1 [17]) | inhibition (3T3-L1 [18]) | further results
1 | CC(=O)O[C@@H]1C(C)=C[C@H]2[C@@H]3C(C)(C)[C@]3(OC(=O)C(C)C)[C@H](OC(=O)c3ccccc3)[C@@H](C)[C@]2(O)[C@@H]2C=C(C)C(=O)[C@@H]12 | 0.32 µM | Dose-dependent effect | inactive | Dose-dependent effect | Active | inactive | inactive | inactive | Active | Dose-dependent effect | inactive | inactive | Dose-dependent effect | Dose-dependent effect | Dose-dependent effect | inactive | Dose-dependent effect | Active | Active | Dose-dependent effect | inhibition (3T3-L1 [19]): Active; inhibition (3T3-L1 [20]): Active; IC50 at 6 days [21]: > 100 µM; inhibition (3T3-L1 [22]): inactive; inhibition at 10 µM (3T3-L1 [23]): > 50%; inhibition (3T3-L1 [24]): Dose-dependent effect; inhibition (3T3-L1 [25]): inactive; inhibition (3T3-L1 [26]): Dose-dependent effect; inhibition (3T3-L1 [27]): Dose-dependent effect; inhibition (3T3-L1 [28]): Active; inhibition (3T3-L1 [29]): Dose-dependent effect; inhibition (3T3-L1 [30]): Active; inhibition (3T3-L1 [31]): inactive; inhibition (3T3-L1 [32]): Active; inhibition (3T3-L1 [33]): Active; Activity (HEK293): Non-Toxic; inhibition (3T3-L1 [34]): Dose-dependent effect; inhibition (3T3-L1 [35]): inactive; inhibition (3T3-L1 [36]): Dose-dependent effect
2 | CC1=C[C@@H]2[C@@H](C1=O)[C@H](O)C(C)=C[C@H]1[C@@H]3C(C)(C)[C@]3(OC(=O)C(C)C)[C@H](OC(=O)c3ccccc3)[C@@H](C)[C@]21O | 0.61 µM | Dose-dependent effect | inactive | Dose-dependent effect | Active | inactive | inactive | inactive | Active | Dose-dependent effect | inactive | inactive | Dose-dependent effect | Dose-dependent effect | Dose-dependent effect | inactive | Dose-dependent effect | Active | Active | Dose-dependent effect | inhibition (3T3-L1 [19]): Active; inhibition (3T3-L1 [20]): Active; IC50 at 6 days [21]: 17.2 µM; inhibition (3T3-L1 [22]): inactive; inhibition at 10 µM (3T3-L1 [23]): > 50%; inhibition (3T3-L1 [24]): Dose-dependent effect; inhibition (3T3-L1 [25]): inactive; inhibition (3T3-L1 [26]): Dose-dependent effect; inhibition (3T3-L1 [27]): Dose-dependent effect; inhibition (3T3-L1 [28]): Active; inhibition (3T3-L1 [29]): Dose-dependent effect; inhibition (3T3-L1 [30]): Active; inhibition (3T3-L1 [31]): inactive; inhibition (3T3-L1 [32]): Active; inhibition (3T3-L1 [33]): Active; Activity (HEK293): Non-Toxic; inhibition (3T3-L1 [34]): Dose-dependent effect; inhibition (3T3-L1 [35]): inactive; inhibition (3T3-L1 [36]): Dose-dependent effect
